# Data as given in publication PMC7433713, “Beyond Single Nucleotide Polymorphisms: CYP3A5^∗3^∗6^∗7 Composite and ABCB1 Haplotype Associations to Tacrolimus Pharmacokinetics in Black and White Renal Transplant Recipients” (Frontiers in Genetics, 2020).
# Read-outs that look alike come from different tables or passages of the source.
# Experiments:
# clinical = settings: both, human, whole blood, oral
# [1] = Tacrolimus pharmacokinetics stratified by CYP3A5 metabolic composite and ABCB1 3435 genotype; format: in vivo, human; settings: for Tmax / AUC / Cmax / concentration at 12 h / clearance: human, whole blood, oral; for concentration at 12 h: read-out: C12hr; for clearance: read-out: CL/LBW (converted)
# Experimental: To assess the role of both CYP3A5 and ABCB1 variants on tacrolimus pharmacokinetics the CYP3A5 metabolic composite groups and the ABCB1 3435C > T (rs1045642) were included in a single analysis. […] Significant effects of both CYP3A5 and ABCB1 variants on tacrolimus pharmacokinetics was assessed using multivariate analysis of variance.
# All patient demographics and tacrolimus pharmacokinetic parameters were summarized by metabolic composite score for CYP3A5^∗3^∗6^∗7 using the mean and standard deviation for continuous variables. The potential trend between metabolic composite genotypes and association to tacrolimus pharmacokinetics were evaluated using the two-sided Jonckheere-Terpstra test for trends ([Jonckheere, 1983]). Post hoc pairwise comparisons were made using Holm-Bonferroni adjusted Wilcoxon rank sum tests (version 9.3, SAS Institute, Cary, NC). Significant combined effects reflecting composite metabolic CYP3A5 and ABCB1 variants on tacrolimus pharmacokinetics was assessed using multivariate analysis of variance ([Littell et al., 2006]). Significant effects are shown in bold.
# [2] = 12-h steady-state tacrolimus pharmacokinetics by CYP3A5*3*6*7 metabolic composite group in renal transplant recipients; format: in vivo, human
# Experimental: (§1) Tacrolimus doses were adjusted to 4–9 ng/ml troughs based upon time post-transplant and clinical response using a program-specific minimization protocol. ECMPS was dose adjusted based upon clinical response. Estimated glomerular filtration rate (e-GFR) was calculated using the four-factor MDRD equation ([Levey et al., 1999]). Medication adherence was verified by transplant nurse clinician and medication adherence assessment by transplant pharmacist at enrollment. Ethnicity for two previous generations was verified prior to study.
# Loss of protein function due to any one of these variants can occur independent of allelic status at the other two loci; thus assessment of any single SNP may be misleading as an indicator of enzyme function. Patients were assigned a metabolic composite designation as described earlier ([Campagne et al., 2018]) based upon the combined allelic status at all three independent loci (Figure 1). The Extensive Metabolizer phenotype was assigned to individuals with functional genes on both chromosomes. Patients were assigned the Poor Metabolizer phenotype if they were homozygous for the variant allele at any one of the three SNPs and thus CYP3A5 genes on both chromosomes are non-functional (Figure 1C). Patients were designated as Intermediate Metabolizer if they were heterozygous for one loss of function SNP at any of the three loci (Figure 1B). Finally, for patients who were heterozygous at two or more of the SNPs responsible for loss of function, the level of enzyme is dependent upon the arrangement of the variant alleles on each chromosome (Figure 1D). […] For this analysis double heterozygotes (Figure 1D) were conservatively assigned as an Intermediate Metabolizer since individuals could either be poor or intermediate metabolizers.
# [3] = single chromosome; for AUC0–4, phenotypic mean [95% CI] / AUC*, phenotypic mean [95% CI]: race adjusted Thesias; for CL_F, phenotypic mean [95% CI]: sex-adjusted Thesias
# [4] = MPA trough at 12 h in study patients by CYP3A5*3*6*7 metabolic group; settings: both sexes, human, in vivo, oral, ECMPS at steady state
# Experimental: as §1
# [5] = ABCB1 3534 CC, CYP3A5 Extensive (N 6)
# [6] = ABCB1 3534 CC, CYP3A5 Intermediate (N 10)
# [7] = ABCB1 3534 CC, CYP3A5 Poor (N 13)
# [8] = ABCB1 3534 CT and TT, CYP3A5 Extensive (N 6)
# [9] = ABCB1 3534 CT and TT, CYP3A5 Intermediate (N 10)
# [10] = ABCB1 3534 CT and TT, CYP3A5 Poor (N 20)
# [11] = 2.35 mg, ABCB1 3534 CT and TT, CYP3A5 Poor (N 20)
# [12] = 2.46 mg, ABCB1 3534 CC, CYP3A5 Poor (N 13)
# [13] = 3.55 mg, ABCB1 3534 CT and TT, CYP3A5 Intermediate (N 10)
# [14] = 4 mg, ABCB1 3534 CC, CYP3A5 Intermediate (N 10)
# [15] = 5.08 mg, ABCB1 3534 CT and TT, CYP3A5 Extensive (N 6)
# [16] = 5.67 mg, ABCB1 3534 CC, CYP3A5 Extensive (N 6)
smiles,measurement,setting,value
C=CC[C@@H]1/C=C(\C)C[C@H](C)C[C@H](OC)[C@H]2O[C@@](O)(C(=O)C(=O)N3CCCC[C@H]3C(=O)O[C@H](/C(C)=C/[C@@H]3CC[C@@H](O)[C@H](OC)C3)[C@H](C)[C@@H](O)CC1=O)[C@H](C)C[C@@H]2OC [tacrolimus],clearance,clinical; 1.58 mg,6 mL/min/kg
same,clearance,clinical; 2.45 mg,8 mL/min/kg
same,AUC0–12 Dose,[1]; [5],23.95 (8.30) ng.hr/ml/mg
same,C12hr/dose,[1]; [5],1.43 (0.55) ng/ml/mg
same,CL_F,[1]; [5],48.23 (4.32) L/hr
same,Cmax/Dose,[1]; [5],3.36 (1.19) ng/ml
same,AUC0–12 Dose,[1]; [6],36.76 (6.43) ng.hr/ml/mg
same,AUC*,[1]; [6],130.75 (9.73) ng.hr/ml
same,C12hr/dose,[1]; [6],2.16 (0.43) ng/ml/mg
same,CL_F,[1]; [6],31.30 (3.35) L/hr
same,Cmax/Dose,[1]; [6],5.21 (0.92) ng/ml
same,AUC0–12 Dose,[1]; [7],56.39 (5.64) ng.hr/ml/mg
same,C12hr/dose,[1]; [7],3.44 (0.37) ng/ml/mg
same,CL_F,[1]; [7],22.61 (2.94) L/hr
same,Cmax/Dose,[1]; [7],7.20 (0.81) ng/ml
same,AUC0–12 Dose,[1]; [8],28.97 (8.30) ng.hr/ml/mg
same,AUC*,[1]; [8],129.45 (12.57) ng.hr/ml
same,C12hr/dose,[1]; [8],1.57 (0.55) ng/ml/mg
same,CL_F,[1]; [8],39.53 (4.32) L/hr
same,Cmax/Dose,[1]; [8],4.95 (1.19) ng/ml
same,AUC0–12 Dose,[1]; [9],42.94 (6.43) ng.hr/ml/mg
same,C12hr/dose,[1]; [9],2.40 (0.43) ng/ml/mg
same,CL_F,[1]; [9],24.49 (3.35) L/hr
same,Cmax/Dose,[1]; [9],6.61 (0.92) ng/ml
same,AUC0–12 Dose,[1]; [10],56.80 (4.55) ng.hr/ml/mg
same,C12hr/dose,[1]; [10],3.30 (0.30) ng/ml/mg
same,CL_F,[1]; [10],20.09 (2.37) L/hr
same,Cmax/Dose,[1]; [10],8.09 (0.65) ng/ml
same,effect of ABCB1 3435 T allele on tacrolimus clearance,"[1]; across all 3 CYP3A5 metabolic composite groups, P = 0.040",significantly reduced
same,Tmax,"[1]; both sexes, 2.46 mg, ABCB1 3534 CC, CYP3A5 Poor (N 13)",1.94 h
same,Tmax,"[1]; both sexes, 4 mg, ABCB1 3534 CC, CYP3A5 Intermediate (N 10)",1.87 h
same,Tmax,"[1]; both sexes, 5.67 mg, ABCB1 3534 CC, CYP3A5 Extensive (N 6)",1.78 h
same,AUC,"[1]; 2.35 mg, ABCB1 3435 CT and TT, CYP3A5 Poor (N 20)",118 ng·h/mL
same,Cmax,[1]; [11],17 ng/mL
same,Tmax,[1]; [11],1.72 h
same,concentration at 12 h,[1]; [11],6.81 ng/mL
same,clearance,[1]; [11],6.5 mL/min/kg
same,AUC,"[1]; 2.46 mg, ABCB1 3435 CC, CYP3A5 Poor (N 13)",117 ng·h/mL
same,Cmax,[1]; [12],15.7 ng/mL
same,concentration at 12 h,[1]; [12],6.94 ng/mL
same,clearance,[1]; [12],6.17 mL/min/kg
same,AUC,"[1]; 3.55 mg, ABCB1 3435 CT and TT, CYP3A5 Intermediate (N 10)",150 ng·h/mL
same,Cmax,[1]; [13],23.3 ng/mL
same,Tmax,[1]; [13],2.29 h
same,concentration at 12 h,[1]; [13],8.37 ng/mL
same,clearance,[1]; [13],6.83 mL/min/kg
same,Cmax,[1]; [14],18.6 ng/mL
same,concentration at 12 h,[1]; [14],7.55 ng/mL
same,clearance,[1]; [14],9.17 mL/min/kg
same,Cmax,[1]; [15],23.7 ng/mL
same,Tmax,[1]; [15],2.03 h
same,concentration at 12 h,[1]; [15],6.58 ng/mL
same,clearance,[1]; [15],13.2 mL/min/kg
same,AUC,"[1]; 5.67 mg, ABCB1 3435 CC, CYP3A5 Extensive (N 6)",122 ng·h/mL
same,Cmax,[1]; [16],17 ng/mL
same,concentration at 12 h,[1]; [16],7.4 ng/mL
same,clearance,[1]; [16],15 mL/min/kg
same,patients with 12-h tacrolimus exposures <120 ng.hr/ml,"[2]; Blacks, 10/33",30%
same,AUC* lower in Extensive than Poor metabolizers,[2]; P < 0.001,50%
same,patients with 12-h tacrolimus exposures <120 ng.hr/ml,"[2]; Whites, 17/32",53%
same,patients exhibiting AUC0–12 h below the recommended therapeutic range,"[2]; all patients, in spite of achieving target troughs",approximately 40%
same,"dose normalized trough (Cp12hr/dose), Poor compared to Extensive Metabolizers","[2]; greater in Poor, P = 0.0016",2.5 fold
same,"dose-adjusted AUC0–12 h, Poor compared to Extensive metabolizers","[2]; higher in Poor, P < 0.001",2 fold
same,patients within the therapeutic trough range,[2]; target range >4 ng/ml and <15 ng/ml,64 of 65
same,"C max/Dose, phenotypic mean [95% CI]",[3]; ABCB1 variant haplotype TTT,4.06[3.19 – 4.93] ng/ml/mg
same,"AUC0–4, phenotypic mean [95% CI]",[3]; ABCB1 variant haplotype TTT,43.9 [33.4 – 54.4] ng.hr/ml/mg
same,"AUC*, phenotypic mean [95% CI]",[3]; ABCB1 variant haplotype TTT,92.2 [74.6 – 109.8] ng.hr/ml/mg
same,"CL_F, phenotypic mean [95% CI]",[3]; ABCB1 variant haplotype TTT,13.99 [7.87 – 20.11]* L/hr
same,"C max/Dose, phenotypic mean [95% CI]",[3]; ABCB1 wild type haplotype CGC,3.01[2.42 – 3.59] ng/ml/mg
same,"AUC0–4, phenotypic mean [95% CI]",[3]; ABCB1 wild type haplotype CGC,36.59 [30.2 – 42.9] ng.hr/ml/mg
same,"AUC*, phenotypic mean [95% CI]",[3]; ABCB1 wild type haplotype CGC,80.0[68.8 – 91.1] ng.hr/ml/mg
same,"CL_F, phenotypic mean [95% CI]",[3]; ABCB1 wild type haplotype CGC,20.4 [14.5 – 26.3]* L/hr
"COc1c(C)c2c(c(O)c1C/C=C(\C)CCC(=O)O)C(=O)OC2 [MPA, mycophenolic acid]",concentration at 12 h,[4]; CYP3A5*3*6*7 Extensive group (N 7),42 ng/mL
same,concentration at 12 h,[4]; CYP3A5*3*6*7 Intermediate group (N 23),41 ng/mL
same,concentration at 12 h,[4]; CYP3A5*3*6*7 Poor group (N 35),32 ng/mL
same,concentration at 12 h,[4]; Overall (N 65),37 ng/mL
